Assay [1] deals with IL-23 (p19/p40). Description: IL23-p19 ELISA, dendritic cells (DC differentiated from human PBMC, IFNγ primed), LPS stimulated. The settings on record: Dendritic cell, human PBMC-derived dendritic cells, 1 h compound pre-incubation, LPS 1 μg/ml 18 hours, 10 pt. It is filed as cell-based. On the procedure: Compound Screening Using DC Cells
I. Differentiation of PBMC's to DC Cells:
After 2 hours, the media including floating cells was aspirated out carefully and 12 ml of fresh RPMI media (10% FBS) containing GMCSF (100 ng/ml) and IL4 (20 ng/ml) was added, and the flask was kept in a 37° C. incubator for 7 days.
After 3 days, fresh GMCSF (100 ng/ml) and IL4 (20 ng/ml) were added to the flask and the incubation continued. After 7 days, the fully differentiated cells were harvested by spinning down (1200 rpm/5 min) and aspirating the media. The cells were suspended in fresh RPMI media (10% FBS) containing 50 ng/ml IFNγ (1000 U/ml) and then plated (50K/well in 100 μl) onto a white clear bottom 96 well plate and left in a 37° C. incubator for 24 hours.
II. Addition of Compounds:
After 24 hours incubation, 100 μl of RPMI media was added containing 2× concentrated test compound per well to the above cell-culture media (final concentration becomes 1×) and the plates were pre-incubated for 1 hour at 37° C. before stimulating with LPS.
The mixture was shaken and incubated the plates at 37° C. for an additional 18 hours.
155 μl of the supernatant was harvested from each well carefully (without the tip touching the bottom of the well) and to the remaining 50 μl/well of the cell culture plate was added 50 μl of Cell Titer Glo reagent. The mixture was incubated for 1-2 minutes on a shaker and the plate was read for luminescence intensity to determine the compound cytotoxicity. The cell culture supernatant collected above was used to carry out IL23 ELISA (65 μl—Supernatant) and IL10 ELISA (90 μl—Supernatant) as described below.
Human IL-23 (p19/p40) ELISA Protocol (e-Biosciences)
To 10.5 ml PBS add 50 μl of anti-IL23 (p19) was added capture antibody (2.5 μg/ml). The mixture was mixed well and 100 μl of the coating solution was added to each well of the 96 well white plates from Pierce. The wells were covered and incubated overnight at 4° C.
The anti-IL23 (p19)-antibody-coated plates were washed 2× using TBST (use plate washer) and blocked using 200 μl of 0.5% Casein for 1.5-2 hours at room temperature with shaking.
Addition of Supernatant and Detection:
The plates were washed 2× using TBST and the supernatant was transferred (65 μl/well) to the above pre-blocked/IL23(p19)-antibody-coated 96 well plate, and incubated at room temperature for 1.5 hours with shaking.
The plates were washed 4× using TBST (plate washer) and 100 μl/well detection antibody solution prepared from 2 μl of biotin labeled anti-IL-12 (p40/p70) antibody in 11 ml 1% BSA/PBS solution (1-5000 dilution) was added. The plates were incubated for 1 hour with shaking at Room temperature.
Again, the plates were washed 4× with TBST and 100 μl of HRP labeled Streptavidin (R&D Systems) solution (10 μl/10 ml 1% BSA solution) was added, and the plates were incubated at room temperature for another 45 minutes with shaking.
After 45 minutes, the plates were washed with TBST 4× and 100 μl/well Super Signal ELISA Pico Chemiluminescent Substrate from Pierce (3.5 ml A+3.5 ml B+3.5 ml MQ water) was added. The plates were shaken for 1-2 minutes then read on a plate reader.
On the technique in general: In an ELISA, binding on a coated surface is turned into a signal by an enzyme label.

For assay [2], the system named is IL-23p19. Description: LPS Induced IL23p19 in THP-1 Cells (with IFNγ Primed) Assay. It is filed as cell-based, human. The conditions noted are these: Homo sapiens, THP-1, THP-1 cells, IFNγ (50 ng/mL) primed, 1 hour compound pre-incubation, LPS 1 ug/mL 18 hours, 10 pt; read-out: IL23-p19 ELISA, THP1-IFNy, LPS, 10 pt EC50. Summed up:
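THP-1 cells (50K/well) primed ~18 h with IFNγ (50 ng/mL) in RPMI/10% FBS, then incubated with compound in duplicate for 18 h at 37° C. Supernatant IL-23p19 measured by chemiluminescent sandwich ELISA, giving EC50 by curve fitting. Toxicity assessed in parallel on the remaining cells by Cell Titer Glo.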

The structures appear in SMILES notation.

Data on 12 molecules can be found in patent US10947216B2, “Amide compounds and method for making and using” (Rigel Pharmaceuticals, Inc., priority 2016, dated 2021).

Usually EC50 stands for the concentration needed to bring the measured effect to its halfway point. Turning to `CNc1cncc(-c2cccc(C(=O)Nc3cn(C)nc3-c3ccccn3)n2)c1` [Compound I-26, N-(1-methyl-3-(pyridin-2-yl)-1H-pyrazol-4-yl)-5′-(methylamino)-[2,3′-bipyridine]-6-carboxamide], the values for the EC50 in assay [1] and in assay [2] were 0.204 µM and 2.87 µM, respectively.
Turning to `Cn1cc(NC(=O)c2cccc(-c3cncc(NC4CC4)c3)n2)c(-c2ccccn2)n1` [Compound I-27, 5′-(cyclopropylamino)-N-(1-methyl-3-(pyridin-2-yl)-1H-pyrazol-4-yl)-[2,3′-bipyridine]-6-carboxamide], the EC50 in assay [1] is 0.342 µM; in assay [2] it was 7.02 µM.
The corresponding values for `CC(C)Nc1cncc(-c2cccc(C(=O)Nc3cn(C)nc3-c3ccccn3)n2)c1` [Compound I-28, 5′-(isopropylamino)-N-(1-methyl-3-(pyridin-2-yl)-1H-pyrazol-4-yl)-[2,3′-bipyridine]-6-carboxamide] are 0.546 µM and 1.45 µM.
The like results for `Cn1cc(NC(=O)c2cccc(-c3cncc(NC(C)(C)C)c3)n2)c(-c2ccccn2)n1` [Compound I-29, 5′-(tert-butylamino)-N-(1-methyl-3-(pyridin-2-yl)-1H-pyrazol-4-yl)-[2,3′-bipyridine]-6-carboxamide] were, in that order, 0.91 µM and 16.4 µM.
The like results for `Cn1cc(NC(=O)c2cccc(-c3cncc(NC4CCOCC4)c3)n2)c(-c2ccccn2)n1` [Compound I-30, N-(1-methyl-3-(pyridin-2-yl)-1H-pyrazol-4-yl)-5′-((tetrahydro-2H-pyran-4-yl)amino)-[2,3′-bipyridine]-6-carboxamide] were, in that order, 3.21 µM and 0.772 µM.
For the molecule `Cn1cc(NC(=O)c2cccc(-c3cncc(NCC4CC4)c3)n2)c(-c2ccccn2)n1` [Compound I-32, 5′-((cyclopropylmethyl)amino)-N-(1-methyl-3-(pyridin-2-yl)-1H-pyrazol-4-yl)-[2,3′-bipyridine]-6-carboxamide], the 50% effective concentration (EC50) came to 7.19 µM in assay [1] and 2.52 µM in assay [2].
Regarding `Cn1cc(NC(=O)c2cccc(-c3cncc(NCC(F)(F)F)c3)n2)c(-c2ccccn2)n1` [Compound I-33, N-(1-methyl-3-(pyridin-2-yl)-1H-pyrazol-4-yl)-5′-((2,2,2-trifluoroethyl)amino)-[2,3′-bipyridine]-6-carboxamide], the EC50 was found to be 1.02 µM in assay [1] and 3.16 µM in assay [2].
The like results for `Cn1cc(NC(=O)c2cccc(-c3cncc(NS(C)(=O)=O)c3)n2)c(-c2ccccn2)n1` [Compound I-34, N-(1-methyl-3-(pyridin-2-yl)-1H-pyrazol-4-yl)-5′-(methylsulfonamido)-[2,3′-bipyridine]-6-carboxamide] were, in that order, 16.1 µM and 71.9 µM.
The corresponding values for `CN(C)c1cncc(-c2cccc(C(=O)Nc3cn(C)nc3-c3ccccn3)n2)c1` [Compound I-35, 5′-(dimethylamino)-N-(1-methyl-3-(pyridin-2-yl)-1H-pyrazol-4-yl)-[2,3′-bipyridine]-6-carboxamide] are 0.878 µM and 1.11 µM.
The corresponding values for `Cn1cc(NC(=O)c2cccc(-c3cncc(N4CCCC4)c3)n2)c(-c2ccccn2)n1` [Compound I-36, N-(1-methyl-3-(pyridin-2-yl)-1H-pyrazol-4-yl)-5′-(pyrrolidin-1-yl)-[2,3′-bipyridine]-6-carboxamide] are 0.784 µM and 4.25 µM.
Regarding `CN1CCN(c2cncc(-c3cccc(C(=O)Nc4cn(C)nc4-c4ccccn4)n3)c2)CC1` [Compound I-38, N-(1-methyl-3-(pyridin-2-yl)-1H-pyrazol-4-yl)-5′-(4-methylpiperazin-1-yl)-[2,3′-bipyridine]-6-carboxamide], the EC50 stood at 33.7 µM in assay [1] and 6.2 µM in assay [2].
The corresponding values for `Cn1cc(NC(=O)c2cccc(-c3ccc(N)nc3)n2)c(-c2ccccn2)n1` [Compound I-43, 6′-amino-N-(1-methyl-3-(pyridin-2-yl)-1H-pyrazol-4-yl)-[2,3′-bipyridine]-6-carboxamide] are 1.46 µM and 1.32 µM.
